PMC7997032, “Organic synthesis and anti-influenza A virus activity of cyclobakuchiols A, B, C, and D” (PLoS ONE, 2021)
Values joined by “and” are separate entries in the source; they are usually repeats but may differ in a detail not shown here. Equal values may be shown once.

Experiments:
A/WSN/33 virus [1] = test: Immunofluorescence staining of viral NP in influenza A virus-infected MDCK cells; details: WSN
Description: (§1) MDCK cells were seeded on a 96-well plate at 1 × 10^4 cells/well. […] Each mixture was added to the cells at 37°C in the presence of 5% CO2. […] After influenza A viral infection for 24 h, the cells were fixed with 4% paraformaldehyde in phosphate-buffered saline (PBS) for 30 min at 4°C and subsequently permeabilized by the addition of 0.3% Triton X-100 for 20 min at 25°C. A mouse primary antibody was used to detect the NP of A/PR/8/34 or A/WSN/33 viruses (FluA-NP 4F1; SouthernBiotech, AL, USA). Alexa Fluor488-conjugated goat anti-mouse IgG (H + L) antibody (Thermo Fisher Scientific) was used as the secondary antibody. Cell nuclei were then stained using diamidino-2-phenylindole (DAPI) (Thermo Fisher Scientific). Wells were photographed using a fluorescence microscope (BIOREVO BZ-X700; Keyence, Osaka, Japan). The proportion of influenza A NP-positive cells per DAPI-positive cells was calculated based on measurements recorded using BZ-X Analyzer software (Keyence).

A/WSN/33 virus [2] = test: Influenza A viral growth assay (viral titer of culture media); assay type: cell-based, influenza A H1N1 virus; details: A/WSN/33 (WSN), 12.5uM, average of #1-3 exp (n=9)
Nrf2 = Nrf2 reporter assay (dual luciferase system) in MDCK cells; assay type: cell-based, canine; details: 12.5uM, relative to DMSO trans+
Description: An Nrf2 reporter assay based on the dual luciferase system was performed as previously described. The plasmid pNQO1-ARE (antioxidant response element)-Fluc, provided by Yamamoto M., expressed a Firefly luciferase gene driven by Nrf2 activation, while the plasmid pRL-TK-Rluc vector (Promega, CA, USA) expressed a Renilla luciferase gene driven by the herpes simplex viral thymidine kinase promoter as an internal control. MDCK cells were seeded in a 24-well plate at 1 × 10^5 cells/well and transfected with pNQO1-ARE-luc (0.25 μg) and pRL-TK-Rluc (0.25 μg). At 24 h post-transfection, the cells were treated with 12.5 μM cyclobakuchiols A–D in the infection medium at 37°C under 5% CO2. DMSO (0.125%) and 12.5 μM 1 were used as negative and positive controls, respectively. Total RNA was extracted from the MDCK cell lysates after 24 h of incubation. The levels of Firefly and Renilla luciferase mRNAs were analyzed by RT-qPCR and normalized to that of β-actin mRNA.

A/PR/8/34 virus [3] = test: Influenza A viral growth assay (viral titer of culture media); assay type: cell-based, influenza A H1N1 virus; set-up: viral titer of culture media, individual replicate / viral titer of culture media, ave: unit not given here; details: A/PR/8/34 (PR8), 12.5uM, average of #1-3 exp (n=9)
[4] = test system: canine interferon-β (Ifn-β); test: RT-qPCR of Ifn-β mRNA in MDCK cells with or without A/PR/8/34 virus; assay type: cell-based; details: 12.5uM, relative to virus - DMSO; for MDCK IFN-b mRNA, ave: ave of #1-3 exp; for MDCK IFN-b mRNA, individual replicates: replicates 1-3 of #1, #2, #3 exp, listed as Cyclobakuchiol C
A/PR/8/34 virus [5] = assay type: cell-based; details: 12.5 μM, 24h WB
A/PR/8/34 virus [6] = test: RT-qPCR of viral mRNAs (NP, NS1, PA, PB1, PB2, M2) in infected MDCK cells; assay type: cell-based, influenza A H1N1 virus
A/PR/8/34 virus [7] = test: Immunofluorescence staining of viral NP in influenza A virus-infected MDCK cells; details: for NP/DAPI (%) ave: average of 9 wells
Description: as §1

[8] = test system: NAD(P)H quinone oxidoreductase 1 (Nqo1); test: RT-qPCR of Nqo1 mRNA in MDCK cells with or without A/PR/8/34 virus; assay type: cell-based, canine; details: 12.5uM, MDCK, relative to virus - DMSO; for NQO1 Canis lupus mRNA, ave: ave of #1-3 exp; for NQO1 Canis lupus mRNA, individual replicates: replicates 1-3 of #1, #2, #3 exp, listed as Cyclobakuchiol C
[9] = single experiment, listed as cyclo C
[10] = MDCK cells, PR8 virus, relative to DMSO (about 1), ave of #1-3 exp (9 values)
[11] = MDCK cells, PR8 virus, relative to DMSO, replicates 1-3 of #1, #2, #3 exp, listed as Cyclobakuchiol C

## C=C[C@]1(C)CCC(C(C)(C)O)C(c2ccc(O)cc2)C1 (stereo in doubt) [cyclobakuchiol C]
A/WSN/33 virus [1]; 3.13uM, ave of 9 values (3 exp)
  NP/DAPI (%) ave: 25.0115%
A/WSN/33 virus [1]; 6.25uM, ave of 9 values (3 exp)
  NP/DAPI (%) ave: 26.7813%
A/WSN/33 virus [1]; 12.5uM, ave of 9 values (3 exp)
  NP/DAPI (%) ave: 26.2263%
A/WSN/33 virus [1]; 25uM, ave of 9 values (3 exp)
  NP/DAPI (%) ave: 34.9195%
A/WSN/33 virus [1]; ave summary, 3.13%
  NP/DAPI (%) ave: 25.0115%
A/WSN/33 virus [1]; ave summary, 6.25%
  NP/DAPI (%) ave: 26.7813%
A/WSN/33 virus [1]; ave summary, 12.50%
  NP/DAPI (%) ave: 26.2263%
A/WSN/33 virus [1]; ave summary, 25%
  NP/DAPI (%) ave: 34.9195%
A/WSN/33 virus [2]; 12h
  viral titer of culture media, ave: 8288.89
A/WSN/33 virus [2]; 24h
  viral titer of culture media, ave: 21277778
A/WSN/33 virus [2]; 48h
  viral titer of culture media, ave: 246888889
A/WSN/33 virus [2]; 72h
  viral titer of culture media, ave: 155211111
Nrf2; ave of #1-3 exp
  pNQO1-ARE-Luc NRF2 reporter assay, ave: 1.343
Nrf2; two values each of #1, #2, #3 exp, listed as Cyclobakuchiol C
  pNQO1-ARE-Luc NRF2 reporter assay, individual replicates: 1.496 and 1.13 and 1.492 and 1.034 and 1.043 and 1.865
A/PR/8/34 virus [3]; 12h
  viral titer of culture media, ave: 33333.3
A/PR/8/34 virus [3]; 24h
  viral titer of culture media, ave: 52222.2
A/PR/8/34 virus [3]; 48h
  viral titer of culture media, ave: 37777.8
A/PR/8/34 virus [3]; 72h
  viral titer of culture media, ave: 43333.3
[4]; virus +
  MDCK IFN-b mRNA, ave: 8.927
  MDCK IFN-b mRNA, individual replicates: 3.309 and 15.7023 and 10.0086 and 14.1468 and 10.7403 and 6.351 and 9.878 and 6.251 and 3.957
[4]; virus -
  MDCK IFN-b mRNA, ave: 1.684
  MDCK IFN-b mRNA, individual replicates: 0.8094 and 4.073 and 2.562 and 3.148 and 0.7696 and 1.281 and 1.389 and 0.8375 and 0.2824
A/PR/8/34 virus [5]; average of 3 experiments
  NP/b-actin ave: 0.8052
  NS1/b-actin ave: 0.5534
A/PR/8/34 virus [5]; [9]
  NP mean (western blot signal intensity, ImageJ): 91.764 and 95.052 and 111.845
  NP/b-actin: 0.819 and 0.7 and 0.8964
  NS1/b-actin: 0.4287 and 0.5327 and 0.6988
  NS1 mean (western blot signal intensity, ImageJ): 69.827 and 74.096 and 58.545
A/PR/8/34 virus [6]; MDCK PR8, NP mRNA, relative (DMSO about 1), average of #1-3 exp (n=9)
  PR8 NP gene expression qPCR, ave: 0.0715
A/PR/8/34 virus [6]; MDCK PR8, NP mRNA, relative (DMSO about 1), replicates of #1-3 exp, listed as Cyclobakuchiol C
  PR8 NP gene expression qPCR, individual replicate: 0.02965 and 0.0515 and 0.04036 and 0.08601 and 0.1343 and 0.1201 and 0.1206 and 0.03078 and 0.03024
A/PR/8/34 virus [6]; MDCK PR8, NS1 mRNA, relative (DMSO about 1), average of #1-3 exp (n=9)
  PR8 NS1 gene expression qPCR, ave: 0.04238
A/PR/8/34 virus [6]; MDCK PR8, NS1 mRNA, relative (DMSO about 1), replicates of #1-3 exp, listed as Cyclobakuchiol C
  PR8 NS1 gene expression qPCR, individual replicate: 0.02453 and 0.03462 and 0.02897 and 0.02312 and 0.08062 and 0.06227 and 0.07687 and 0.03138 and 0.01906
A/PR/8/34 virus [6]; MDCK PR8, PA mRNA, relative (DMSO about 1), average of #1-3 exp (n=9)
  PR8 PA gene expression qPCR, ave: 0.04976
A/PR/8/34 virus [6]; MDCK PR8, PA mRNA, relative (DMSO about 1), replicates of #1-3 exp, listed as Cyclobakuchiol C
  PR8 PA gene expression qPCR, individual replicate: 0.02841 and 0.03504 and 0.0209 and 0.04366 and 0.1014 and 0.08076 and 0.0804 and 0.03232 and 0.02491
A/PR/8/34 virus [6]; [10]
  PR8 M2 gene expression qPCR, ave: 0.05203
  PR8 PB1 gene expression qPCR, ave: 0.0394
  PR8 PB2 gene expression qPCR, ave: 0.05178
A/PR/8/34 virus [6]; [11]
  PR8 M2 gene expression qPCR, individual replicates: 0.02539 and 0.04593 and 0.02488 and 0.06301 and 0.1078 and 0.07697 and 0.07009 and 0.03046 and 0.02377
  PR8 PB1 gene expression qPCR, individual replicates: 0.02851 and 0.01826 and 0.01255 and 0.01866 and 0.09078 and 0.07015 and 0.07353 and 0.02182 and 0.02034
  PR8 PB2 gene expression qPCR, individual replicates: 0.02749 and 0.04527 and 0.0229 and 0.05473 and 0.1042 and 0.07786 and 0.07787 and 0.03099 and 0.02468
A/PR/8/34 virus [7]; A/PR/8/34, 3.13 uM
  NP/DAPI (%) ave: 6.545%
A/PR/8/34 virus [7]; A/PR/8/34, 6.25 uM
  NP/DAPI (%) ave: 2.732%
A/PR/8/34 virus [7]; A/PR/8/34, 12.5 uM
  NP/DAPI (%) ave: 1.281%
A/PR/8/34 virus [7]; A/PR/8/34, 25 uM
  NP/DAPI (%) ave: 1.024%
A/PR/8/34 virus [7]; Influenza A virus, PR/8, MDCK, read-out: half maximal (50%) inhibitory concentration (IC50)
  IC50: 4.6 ± 2.2 µM
[8]; virus + (PR8)
  NQO1 Canis lupus mRNA, ave: 1.3
  NQO1 Canis lupus mRNA, individual replicates: 1.5721 and 1.53 and 1.546 and 1.742 and 0.864 and 0.8958 and 0.9507 and 1.371 and 1.2312
[8]; virus -
  NQO1 Canis lupus mRNA, ave: 1.195
  NQO1 Canis lupus mRNA, individual replicates: 1.246 and 1.375 and 1.298 and 1.334 and 1.006 and 1.078 and 1.116 and 1.24 and 1.059
